Test results as given in patent US20230354862A1, “ANTI-DIABETIC COMPOSITION CONTAINING BEET MIXTURE AS ACTIVE INGREDIENT” (BAE RYEO INNOVATION CO., LTD., priority 2021, published 2023).

How the values were obtained:
SD rats [1] = assay: Oral starch tolerance test (OATT); assay type: in vivo, rat
Description: As an experimental food, normal mouse feed (Purina Lab Rodent Chow #38057, Purina Co., Seoul Korea) was fed, and during the acclimatization period, filtered water was replaced with fresh one and the animals were allowed access ad libitum to water. During the breeding period, the animals were kept under the following conditions: temperature, 23±1° C.; humidity, 50±5%; noise, 60 phone or less; lighting time, 08:00 to 20:00 (12 hours a day); illumination, 150 to 300 Lux; 10 to 12 ventilations per hour. This experiment was conducted in compliance with the Animal Experimental Ethics Regulations. After completion of the acclimatization period, the experimental animals were divided into groups using the randomized block design based on fasting blood glucose that the mean values between the groups were uniform, and then the animals were marked using an ear punch. […] Changes in blood glucose levels in each group were analyzed based on the measured blood glucose levels. All experimental results were calculated as mean±standard error (mean±S.E.) using the statistical program (SPSS ver. 12.0, SPSS Inc., Chicago, IL, USA). […]

SD rats [2] = assay: Oral sucrose tolerance test (OSTT); assay type: in vivo, rat; conditions: 3 mg/kg acarbose (A 3)
Description: As an experimental food, normal mouse feed (Purina Lab Rodent Chow #38057, Purina Co., Seoul Korea) was fed, and during the acclimatization period, filtered water was replaced with fresh one and the animals were allowed access ad libitum to water. During the breeding period, the animals were kept under the following conditions: temperature, 23±1° C.; humidity, 50±5%; noise, 60 phone or less; lighting time, 08:00 to 20:00 (12 hours a day); illumination, 150 to 300 Lux; 10 to 12 ventilations per hour. This experiment was conducted in compliance with the Animal Experimental Ethics Regulations. After completion of the acclimatization period, the experimental animals were divided into groups using the randomized block design based on fasting blood glucose that the mean values between the groups were uniform, and then the animals were marked using an ear punch. The animals were divided into a normal group, a control group, a group to which 10 mg/kg of the beet mixture was administered (10 mg/kg Beta vulgaris mixture group), a group to which 30 mg/kg of the beet mixture was administered (30 mg/kg Beta vulgaris mixture group), a group to which 30 mg/kg of the beet mixture was administered (30 mg/kg Beta vulgaris mixture group), and a positive control group (3 mg/kg acarbose), each consisting of 8 animals. Using these groups, an oral sucrose tolerance test (OSTT) and an oral starch tolerance test (OATT) were conducted. […] Changes in blood glucose levels in each group were analyzed based on the measured blood glucose levels. All experimental results were calculated as mean±standard error (mean±S.E.) using the statistical program (SPSS ver. 12.0, SPSS Inc., Chicago, IL, USA). Statistically significant differences between experimental groups were tested using a one-way analysis of variance test (ANOVA), and in case of significance (p<0.05), a post-test was performed with the Duncan's multiple range test.

db/db mice [3] = assay: Weekly biomarker analysis in type 2 diabetes model (body weight, food and water intake, blood glucose); assay type: in vivo, mouse; conditions: 300 mg/kg metformin (Met 300)
Excerpt: (§1) As experimental animals, 5-week-old specific-pathogen free (SPF) male db/db mice were obtained from Central Laboratory Animal, Inc. (Seoul, Korea), and acclimated for 1 week before use in the experiment. As an experimental food, normal mouse feed (Purina Lab Rodent Chow #38057, Purina Co., Seoul Korea) was fed, and during the acclimatization period, filtered water was replaced with fresh one daily and the animals were allowed access ad libitum to water. During the breeding period, the animals were kept under the following conditions: temperature, 23±1° C.; humidity, 50±5%; noise, 60 phone or less; lighting time, 08:00 to 20:00 (12 hours a day); illumination, 150 to 300 Lux; 10 to 12 ventilations per hour. This experiment was conducted in compliance with the Animal Experimental Ethics Regulations.
(§2) After completion of the acclimatization period, the experimental animals were divided into groups using the randomized block design based on fasting blood glucose that the mean values between the groups were uniform, and then the animals were marked using an ear punch. The animals were divided into a normal group, a control group, a group to which 10 mg/kg of the beet mixture was administered (10 mg/kg Beta vulgaris mixture group), a group to which 30 mg/kg of the beet mixture was administered (30 mg/kg Beta vulgaris mixture group), a group to which 30 mg/kg of the beet mixture was administered (30 mg/kg Beta vulgaris mixture group), and a positive control group (300 mg/kg metformin), each consisting of 8 animals. Each sample was orally administered 5 times a week for 3 weeks.
Weekly body weight and blood sugar level were all measured once a week at a certain time, and food intake and water intake were measured the next day after feeding certain amounts of food and water once a week. Weekly blood glucose levels were measured using blood collected from the caudal veins using a blood glucose meter (AutoCheck, Diatech Korea) at a certain time every week. […]
(§3) All experimental results were calculated as mean±standard error (S.E.) using SPSS ver. […]

db/db mice [4] = assay: Oral glucose tolerance test in type 2 diabetes model; assay type: in vivo, mouse; conditions: 300 mg/kg metformin (Met 300)
Excerpt: as §1
(§4) After completion of the acclimatization period, the experimental animals were divided into groups using the randomized block design based on fasting blood glucose that the mean values between the groups were uniform, and then the animals were marked using an ear punch. […]
as §3

db/db mice [5] = assay: Glycated hemoglobin (HbA1c) analysis in type 2 diabetes model; assay type: in vivo, mouse; conditions: after 3 weeks, 300 mg/kg metformin (Met 300)
Excerpt: as §1, §4, §3

db/db mice [6] = assay: Tissue weight analysis in type 2 diabetes model; assay type: in vivo, mouse; conditions: 300 mg/kg metformin (Met 300)
Excerpt: as §1, §2
(§5) Weekly body weight and blood sugar level were all measured once a week at a certain time, and food intake and water intake were measured the next day after feeding certain amounts of food and water once a week. Weekly blood glucose levels were measured using blood collected from the caudal veins using a blood glucose meter (AutoCheck, Diatech Korea) at a certain time every week. For autopsy, blood was collected from the abdominal vena cava after inhalation anesthesia and used for blood analysis, and the liver, epididymal fat, pancreas, and kidney were harvested and weighed.
(§6) All experimental results were calculated as mean±standard error (S.E.) using SPSS ver. 12.0 (SPSS Inc., Chicago, IL, USA). Statistically significant differences between experimental groups were tested using a one-way analysis of variance test (ANOVA), and in case of significance (p<0.05), a post-test was performed with the Duncan's multiple range test.

db/db mice [7] = assay: Hematological (serum) analysis in type 2 diabetes model; assay type: in vivo, mouse; conditions: 300 mg/kg metformin (Met 300)
Excerpt: as §1, §2, §5
Blood was collected from the abdominal vena cava, placed in conical tubes, coagulated for 30 minutes at room temperature, and then centrifuged at 3,000 rpm for 10 minutes. Analysis of blood fructosamine, TC, TG, LDL-C, HDL-C, and VLDL levels were performed by KPNT (Cheongju, Korea), and insulin analysis was performed using an ELISA kit (Crystalchem, USA). HOMA-IR and HOMA-beta levels were calculated based on the blood analysis results.
as §6

db/db mice [8] = assay: Histological analysis of β-cell area (insulin immunostaining of pancreas); assay type: in vivo, mouse; conditions: 300 mg/kg metformin (Met 300)
Excerpt: as §1, with “Regulations. […]” for “Regulations.”
Analysis of the islets of Langerhans in the pancreatic tissue was performed by immunostaining. […] After washing twice with TBST buffer for 5 min, samples were reacted with 2.5% normal goat serum for blocking (Vector, USA) for 20 min, and then the blocking reagent and working insulin antibody (Cell Signaling, MA, USA) solution (2 to 10 μl of antibody to 1 ml of Ready-To-Use 2.5% normal goat serum for blocking) was reacted at 4° C. overnight. […]
as §3

## C[C@H]1O[C@H](O[C@H]2[C@H](O)[C@@H](O)[C@@H](O[C@H]3[C@H](O)[C@@H](O)C(O)O[C@@H]3CO)O[C@@H]2CO)[C@H](O)[C@@H](O)[C@@H]1N[C@H]1C=C(CO)[C@@H](O)[C@H](O)[C@H]1O (stereo partly drawn) [acarbose]
SD rats [1]; 3 mg/kg acarbose (A 3)
  change in blood glucose after starch administration (AUC): 197.32 ± 7.12 mg/dL
SD rats [1]; 3 mg/kg acarbose oral (A 3)
  blood glucose level at 30 min after starch administration: 90.63 ± 3.80 mg/dL
SD rats [2]
  blood glucose level at 30 min after sucrose administration: 95.88 ± 3.20 mg/dL
  blood glucose level at 120 min after sucrose administration: 80.38 ± 1.76 mg/dL
  change in blood glucose level after sucrose administration (AUC): 197.32 ± 7.12 mg/dL

## CN(C)C(=N)N=C(N)N [metformin]
db/db mice [3]
  blood glucose level at 1 week after sample administration: 167.0 ± 19.1 mg/dL
  blood glucose level at 3 weeks after sample administration: 238.8 ± 21.9 mg/dL
  body weight at week 3: 34.04 ± 0.35 g
db/db mice [4]
  blood glucose level at 30 min after oral glucose administration: 382.0 ± 31.0 mg/dL
  change in blood glucose level after glucose administration (OGTT AUC): 778.06 ± 262.53 mg/dL
db/db mice [5]
  HbA1c level: 6.79±0.29%
db/db mice [6]; after 3 weeks
  kidney tissue weight: 0.303 ± 0.008 g
  liver tissue weight: 1.97 ± 0.06 g
db/db mice [6]; at autopsy
  epididymal fat tissue weight: 1.761 ± 0.038 g
  pancreatic tissue weight: 0.116 ± 0.005 g
db/db mice [7]
  HOMA-IR level (insulin resistance): 0.975±0.199
  HOMA-β level (insulin secretion ability): 6.863±0.404
  serum HDL cholesterol level: 105.09 ± 2.63 mg/dL
  serum fructosamine level: 319.13 ± 10.89 µmol/L
  serum total cholesterol level: 126.50 ± 2.24 mg/dL
db/db mice [7]; after 3 weeks
  LDL cholesterol level: 12.94 ± 0.84 mg/dL
  serum insulin level: 12.94 ± 0.84 ng/mL
  serum triglyceride level: 236.13 ± 11.87 mg/dL
db/db mice [8]
  β-cell area: 83242.23±11320.56 μm^2
